Laboratory results taken from US20100063032A1, “SUBSTITUTED PYRIDO[2,3-D]PYRIMIDINE DERIVATIVES AS CANNABINOID-1 RECEPTOR MODULATORS” (priority 2007, published 2010).

Assays:
[1] = molecular target: recombinant human CB1 receptor (Homo sapiens, UniProt P21554); test: Cannabinoid Receptor-1 (CB1) Binding Assay ([3H]CP-55940 displacement); conditions: recombinant human CB1 in CHO cell membranes, 0.6 nM [3H]CP-55940
Protocol: Binding affinity determination is based on recombinant human CB1 receptor expressed in Chinese Hamster Ovary (CHO) cells (Felder et al, Mol. Pharmacol. 48: 443-450, 1995). Total assay volume is 250 μl (240 μl CB1 receptor membrane solution plus 5 μl test compound solution plus 5 μl [3H]CP-55940 solution). Final concentration of [3H]CP-55940 is 0.6 nM. Binding buffer contains 50 mM Tris-HCl, pH 7.4, 2.5 mM EDTA, 5 mM MgCl28, 0.5 mg/mL fatty acid free bovine serum albumin and protease inhibitors (Cat#P8340, from Sigma). To initiate the binding reaction, 5 μl of radioligand solution is added, the mixture is incubated with gentle shaking on a shaker for 1.5 h at 30° C. The binding is terminated by using 96-well harvester and filtering through GF/C filter presoaked in 0.05% polyethylenimine. The bound radiolabel is quantitated using scintillation counter. Apparent binding affinities for various compounds are calculated from IC50 values (DeBlasi et al., Trends Pharmacol Sci 10: 227-229, 1989).

[2] = molecular target: recombinant human CB1 receptor expressed in CHO cells (Homo sapiens, UniProt P21554); test: Cannabinoid Receptor-1 (CB1) Functional Activity Assay (intracellular cAMP, forskolin); assay type: cell-based; conditions: for EC50: cAMP level with forskolin; for functional mode at CB1 receptor: cAMP, Biological Example 3
Sequence of recombinant human CB1 receptor expressed in CHO cells (P21554 whole entry): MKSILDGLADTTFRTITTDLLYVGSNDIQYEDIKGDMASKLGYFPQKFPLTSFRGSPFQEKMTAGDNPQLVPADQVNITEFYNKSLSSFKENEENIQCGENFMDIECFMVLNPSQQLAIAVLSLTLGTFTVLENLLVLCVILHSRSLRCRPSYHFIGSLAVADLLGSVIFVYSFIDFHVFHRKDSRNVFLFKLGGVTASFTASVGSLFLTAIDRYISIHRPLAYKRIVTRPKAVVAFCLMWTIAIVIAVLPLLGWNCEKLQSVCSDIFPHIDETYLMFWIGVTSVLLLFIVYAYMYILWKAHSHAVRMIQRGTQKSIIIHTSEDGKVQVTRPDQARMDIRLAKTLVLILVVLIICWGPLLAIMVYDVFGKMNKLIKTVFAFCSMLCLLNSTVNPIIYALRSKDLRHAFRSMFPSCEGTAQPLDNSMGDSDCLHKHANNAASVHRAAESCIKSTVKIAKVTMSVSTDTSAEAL
Protocol: The functional activation of CB1 receptor is based on recombinant human CB1 receptor expressed in CHO cells (Felder et al, Mol. Pharmacol. 48: 443-450, 1995). To determine the agonist activity or inverse agonist activity of any test compound, 50 ul of CB1-CHO cell suspension are mixed with test compound and 70 ul assay buffer containing 0.34 mM 3-isobutyl-1-methylxanthine and 5.1 uM of forskolin in 96-well plates. The assay buffer is comprised of Earle's Balanced Salt Solution supplemented with 5 mM MgCl2, 1 mM glutamine, 10 mM HEPES, and 1 mg/mL bovine serum albumin. The mixture is incubated at room temperature for 30 minutes, and terminated by adding 30 ul/well of 0.5M HCl. The total intracellular cAMP level is quantitated using the New England Nuclear Flashplate and cAMP radioimmunoassay kit.
To determine the antagonist activity of test compound, the reaction mixture also contains 0.5 nM of the agonist CP55940 (or 50 nM of methanandamide), and the reversal of the CP55940 (or methanandamide) effect is quantitated with increasing concentration of the test compound. Intracellular cAMP is determined as described above. An IC50 value for the test compound is calculated from the titration curve.
Alternatively, a series of dose response curves for the agonist CP55940 (or methanandamide) is performed with increasing concentration of the test compound in each of the dose response curves, and a Schild analysis is carried to calculate the Kb value which is an estimation of test compound binding affinity.

Sequence of recombinant human CB1 receptor (P21554 whole entry): as above

Row | Compound | IC50 [1] [nM] | EC50 [2] [nM] | functional mode at CB1 receptor [2]
1 | CC(C)(C)c1nc(NCC(F)(F)F)c2cc(-c3ccc(Br)cc3)c(-c3ccccc3Cl)nc2n1 [Example 58, 6-(4-Bromophenyl)-2-tert-butyl-7-(2-chlorophenyl)-N-(2,2,2-trifluoroethyl)pyrido[2,3-d]pyrimidin-4-amine] | 2 | < 15 | functional inverse agonists
2 | CC(C)(C)c1nc(N)c2cc(-c3ccc(Cl)cc3)c(-c3ccc(Cl)cc3Cl)nc2n1 [Example 3, 2-Tert-butyl-6-(4-chlorophenyl)-7-(2,4-dichlorophenyl)pyrido[2,3-d]pyrimidin-4-amine] | 11 | < 15 | functional inverse agonists
3 | CC(C)(C)c1nc2nc(-c3ccc(-c4cn[nH]c4)cc3Cl)c(-c3ccc(Cl)cc3)cc2c(=O)[nH]1 [Example 25, 2-Tert-butyl-6-(4-chlorophenyl)-7-[2-chloro-4-(1H-pyrazol-4-yl)phenyl]pyrido[2,3-d]pyrimidin-4(3H)-one] | 10 | < 15 | functional inverse agonists
4 | CC(C)(C)c1nc(C#N)c2cc(-c3ccc(C#N)cc3)c(-c3ccccc3Cl)nc2n1 [Example 69, 2-Tert-butyl-7-(2-chlorophenyl)-6-(4-cyanophenyl)pyrido[2,3-d]pyrimidine-4-carbonitrile] | 2 | < 15 | functional inverse agonists

Now from value to compound:

Row | IC50 [1] [nM] | EC50 [2] [nM] | functional mode at CB1 receptor [2] | Compound
5 | 4 | < 15 | functional inverse agonists | Cn1c(-c2ccc(Cl)cc2)nc2nc(-c3ccccc3Cl)c(-c3ccc(Cl)cc3)cc2c1=O [Example 60, 7-(2-Chlorophenyl)-2,6-bis(4-chlorophenyl)-3-methylpyrido[2,3-d]pyrimidin-4(3H)-one]
6 | 3 | < 15 | functional inverse agonists | CC(C)(C)Nc1nc(C(C)(C)C)nc2nc(-c3ccccc3Cl)c(-c3ccc(Cl)cc3)cc12 [Example 48, N,2-Di-tert-butyl-7-(2-chlorophenyl)-6-(4-chlorophenyl)pyrido[2,3-d]pyrimidin-4-amine]
7 | 0.6 | < 15 | functional inverse agonists | CC(C)(C)c1nc(-c2ccc(F)cc2)c2cc(-c3ccc(Cl)cc3)c(-c3ccccc3Cl)nc2n1 [Example 72, 2-Tert-butyl-7-(2-chlorophenyl)-6-(4-chlorophenyl)-4-(4-fluorophenyl)pyrido[2,3-d]pyrimidine]
8 | 7 | < 15 | functional inverse agonists | CC(C)(C)c1nc2nc(-c3ccccc3Cl)c(-c3ccc(Cl)cc3)cc2c(=O)[nH]1 [Example 11, 2-Tert-butyl-7-(2-chlorophenyl)-6-(4-chlorophenyl)pyrido[2,3-d]pyrimidin-4(3H)-one]
